In the case of `Cc1cccc2c(=O)n(CCC(=O)O)cnc12`, the melting point – broadly, the temperature of the solid-liquid transition – lay within 199 to 201 °C.

The compound `O=C(O)CCOc1cccc(Cl)c1` had a melting point of 85 to 87 °C.

`COc1ccccc1Nc1ccc(N)cc1`: the melting point was in the range of 73 to 75 °C.

With `Sc1ncc(-c2ccccc2)n1-c1ccccc1`, the melting point fell in the range of 250 to 252 °C.

In turn, `O=C(O)c1cc(NS(=O)(=O)c2cccs2)ccc1O` gave a melting point of 209 to 211 °C.

Regarding `N#Cc1ccc(S(=O)(=O)N2CCOCC2)cc1`, the melting point is 158 to 160 °C.

`CC(=O)c1ccc(S(=O)(=O)N2CCCCC2C(=O)O)cc1` (centres undefined) returned a melting point of 132 to 134 °C.

As to `CCNc1nc(C(=O)O)cs1`, the melting point is 215 to 217 °C.

Regarding `NNc1ccc(S(=O)(=O)NC2CCCCCCC2)cn1`, the melting point lay within 140 to 142 °C.

Consider `Cc1nn(-c2ccccc2)c(N)c1-c1ccccc1`, for which the melting point lay within 82 to 84 °C.

Compound `Cc1c(C2CC2)nc2ccc(Br)cc2c1C(=O)O` displayed a melting point of 218 to 220 °C.

Take `CC(Oc1ccccc1C(F)(F)F)C(=O)O` (centres undefined): the melting point was in the range of 145 to 147 °C.

Consider `CCC(=O)Nc1cc2ccccc2cc1C(=O)O`, for which the melting point is 234 to 236 °C.

With `Cc1ccc(S(=O)(=O)N2CCOCC2)cc1N`, the melting point was 127 to 135 °C.

The compound `O=C(O)C(c1ccccc1)N1CCCCC1=O` (centres undefined) showed a melting point of 148 to 150 °C.

`COc1cc(C(=O)O)ccc1OCc1ccc(Cl)cc1`: the melting point lay in the range of 221 to 223 °C.

Compound `CCOc1cc(N)c(Br)cc1OCC` returned a melting point of 50 to 52 °C.

As for `COc1ccc(S(=O)(=O)NC(C(=O)O)C(C)C)cc1` (centres undefined), the melting point fell in the range of 172 to 174 °C.

Compound `COc1cc(CC#N)cc(Br)c1OCC(F)(F)F` displayed a melting point of 116 to 118 °C.

On to `CCOC(=O)c1c(N)n(CCO)c2nc3ccccc3nc12`, for which the melting point fell in the range of 226 to 228 °C.

`CCn1cnnc1S` returned a melting point of 98 to 100 °C.

The compound `NC(=O)c1cn(CC(=O)O)c2ccccc12` showed a melting point of 239 to 241 °C.

As for `CN(C)c1ccc(N2C(=O)CSC2=S)cc1`, the melting point lay in the range of 138 to 140 °C.

Compound `COc1ccc(S(N)(=O)=O)c([N+](=O)[O-])c1` showed a melting point of 143 to 145 °C.

For the compound `CC(Sc1ccc(Br)cc1)C(=O)O` (centres undefined), the melting point was 113 to 115 °C.

With `O=C(O)CCc1ccc(S(=O)(=O)NC2CC2)cc1`, the melting point is 173 to 175 °C.

The compound `Cc1ccn2ncc(C(=O)O)c2n1` showed a melting point of 256 to 258 °C.

With `Cc1ccc(S(=O)(=O)N(C)C(C)C)cc1N`, the melting point is 117 to 119 °C.

As to `Cc1nn(C)c(Cl)c1/C=C/C(=O)O`, the melting point lay in the range of 156 to 158 °C.

`Cn1ccnc1C(N)c1ccccc1` (centres undefined) showed a melting point of 51 to 53 °C.

Regarding `Cc1ccnc(-n2cc(S(N)(=O)=O)cn2)c1`, the melting point is 156 to 158 °C.

The compound `O=C(O)c1ccn(-c2ccccc2Cl)n1` displayed a melting point of 187 to 189 °C.

In the case of `CC1(c2ccccn2)NC(=O)NC1=O` (centres undefined), the melting point was 170 to 172 °C.

For the compound `CC(C)(C)OC(=O)NCCNS(=O)(=O)c1cccc(N)c1`, the melting point was in the range of 148 to 150 °C.

In the case of `NC1=NS(=O)(=O)c2ccccc21`, the melting point lay in the range of 279 to 281 °C.

`CNC(=O)CN1CCc2ccc(N)cc21` yielded a melting point of 143 to 145 °C.

`Cc1ccnc(NC(=O)C2CCNCC2)c1` yielded a melting point of 134 to 136 °C.

In turn, `CCNc1ccc(C)nn1` showed a melting point of 99 to 101 °C.

Compound `Nc1cc(Cl)ccc1C(=O)Nc1ccc(Cl)cn1` had a melting point of 157 to 159 °C.

The compound `COc1ccc(C(=O)NCC(=O)O)cc1OC` registered a melting point of 198 to 200 °C.

With `Cc1ccc2c(Cl)cc(Cl)c(OCC(=O)O)c2n1`, the melting point lay in the range of 209 to 211 °C.

For the compound `O=C(CN1CCNCC1)N1CCCCC1`, the melting point lay in the range of 83 to 85 °C.

`Clc1cc(CBr)c2ncccc2c1`: the melting point lay within 116 to 118 °C.

Consider `O=S(=O)(NC1CCNCC1)c1ccc(Cl)cc1`, for which the melting point lay in the range of 189 to 191 °C.

`O=C1CN(c2cc(Cl)ccc2Cl)CC(=O)N1` registered a melting point of 139 to 141 °C.

Turning to `COc1ccc(-c2noc(CCl)n2)c(OC)c1`, the melting point is 76 to 80 °C.

The compound `Nc1ccc(I)cc1O` showed a melting point of 104 to 106 °C.

Take `CC1(C)NC(=O)c2ccccc2O1`: the melting point lay within 131 to 133 °C.

Consider `Cc1cc(C=O)c(C)n1Cc1ccco1`, for which the melting point lay in the range of 87 to 89 °C.

On to `O=C(Nc1cccc(CO)c1)c1ccccc1`, for which the melting point fell in the range of 114 to 116 °C.

On to `Cc1cc(F)cc2[nH]c(C(=O)O)cc12`, for which the melting point was 261 to 263 °C.

`Nc1ccnn1Cc1ccccn1` gave a melting point of 68 to 70 °C.

Compound `COC(=O)c1[nH]n(-c2ccc(C(=O)O)cc2)c(=O)c1CCO` displayed a melting point of 233 to 235 °C.

`Nc1ccnn1C1CCS(=O)(=O)C1` (centres undefined) registered a melting point of 169 to 171 °C.

`CCOc1c(C#N)cnc2ccccc12` gave a melting point of 98 to 100 °C.

`COc1ccccc1Nc1nc(N)nc(CCl)n1` gave a melting point of 160 to 162 °C.

Regarding `CN[C@@H]1CN(C(=O)OC(C)(C)C)C[C@H]1O`, the melting point lay within 89 to 91 °C.

Consider `O=C(O)CCc1cscn1`, for which the melting point lay in the range of 156 to 158 °C.

In turn, `Cc1ccccc1-n1nc(C(=O)O)c2c1CCC2` returned a melting point of 205 to 207 °C.

The compound `Cc1ccccc1-c1csc(=O)[nH]1` gave a melting point of 123 to 125 °C.

`CC(C)OC(=S)Nc1ccc(C#N)c(Cl)c1` registered a melting point of 156 to 158 °C.

On to `CCOC(=O)CC(O)c1ccc(OCc2ccccc2)cc1` (centres undefined), for which the melting point was 61 to 63 °C.

Compound `CC(C)c1ccsc1C(=O)O` returned a melting point of 97 to 99 °C.

The compound `O=C(CCc1ccccc1)NC1CCN(C(=O)CCl)CC1` came in with a melting point of 144 to 146 °C.

In the case of `CC(Cc1cccc(F)c1)(C(=O)O)C(=O)O`, the melting point lay within 150 to 152 °C.

In the case of `NS(=O)(=O)C1CCOCC1`, the melting point lay in the range of 129 to 131 °C.

As to `NCc1nnc2n1CCCC2`, the melting point fell in the range of 99 to 101 °C.

`O=c1[nH]nc(-c2ccc(F)cc2)c2ccccc12` showed a melting point of 270 to 272 °C.

`ClCc1csc(-c2ccc3c(c2)OCO3)n1` returned a melting point of 106 to 108 °C.

`COC(=O)c1ccc(F)cc1N` gave a melting point of 62 to 64 °C.

With `COc1ccccc1CNc1cccc2cnccc12`, the melting point lay in the range of 118 to 120 °C.

In turn, `CC(C)Oc1ccc([N+](=O)[O-])c(C(=O)O)c1` came in with a melting point of 135 to 137 °C.

Regarding `Nc1c(C(=O)O)cc(Br)c2c1C(=O)c1ccccc1C2=O`, the melting point was 313 to 315 °C.

Compound `NNC(=O)Cc1ccc(F)cc1` registered a melting point of 129 to 131 °C.

With `O=C(O)c1cc(-c2ccc(Cl)s2)on1`, the melting point fell in the range of 169 to 171 °C.

Compound `Nc1nncc(-c2ccccc2F)n1` returned a melting point of 204 to 206 °C.

On to `O=C(O)C1CCC(=O)N(Cc2ccccc2)C1c1ccccc1` (centres undefined), for which the melting point fell in the range of 164 to 166 °C.

Take `CC(C)c1ccc(C(CN)NC(=O)OC(C)(C)C)cc1` (centres undefined): the melting point fell in the range of 123 to 125 °C.

`COc1cc(C=O)cc(OC)c1OC(C)=O` came in with a melting point of 115 to 117 °C.

`N#Cc1ccc(CN2CCNCC2)cc1`: the melting point was in the range of 214 to 216 °C.

As to `CC(Cl)C(=O)NC1(C#N)CCCCC1` (centres undefined), the melting point lay within 100 to 102 °C.

Regarding `O=C(O)C(Sc1ccccc1Cl)c1ccccc1` (centres undefined), the melting point lay in the range of 116 to 118 °C.

The compound `COC(=O)c1oc2ccccc2c1C` came in with a melting point of 70 to 72 °C.

`NS(=O)(=O)C1CCS(=O)(=O)C1` (centres undefined) had a melting point of 144 to 146 °C.

In turn, `CN(C)CCOc1cc(N)ccn1` yielded a melting point of 87 to 89 °C.

Consider `Cc1nc(O)ccc1Br`, for which the melting point fell in the range of 199 to 201 °C.

For the compound `O=C(O)[C@@H]1CC(O)CN1C(=O)OCC1c2ccccc2-c2ccccc21` (some centres undefined), the melting point is 189 to 191 °C.

In the case of `CCS(=O)(=O)c1ccc2oc(N)nc2c1`, the melting point lay within 209 to 211 °C.

`NS(=O)(=O)CC(F)(F)F` gave a melting point of 97 to 99 °C.

`COc1cc(-c2cc(C(=O)O)c3ccccc3n2)cc(OC)c1OC` yielded a melting point of 195 to 197 °C.

Turning to `CC1CCN(S(=O)(=O)c2ccc(C(=O)O)s2)CC1`, the melting point was in the range of 207 to 209 °C.

Regarding `Nc1cc(Cl)cc2[nH]cnc12`, the melting point is 89 to 91 °C.

Regarding `CC(Cl)C(=O)N1c2ccccc2Sc2ccccc21` (centres undefined), the melting point lay within 118 to 120 °C.

Regarding `COc1cc2ncn(CCCC(=O)O)c(=O)c2cc1OC`, the melting point is 198 to 200 °C.

In the case of `Cc1cc(C#N)ccc1O`, the melting point lay within 89 to 91 °C.

The compound `O=C(O)C1CCc2nnc(C(F)F)n2C1` (centres undefined) displayed a melting point of 215 to 217 °C.

The compound `Cc1cc(C(=O)O)c(C)n1-c1ccc2c(c1)OCCO2` returned a melting point of 204 to 206 °C.

In turn, `O=C(O)CCc1nnnn1-c1ccccc1` displayed a melting point of 119 to 121 °C.

Take `Cc1ccc(CNC(=O)NCC(=O)O)cc1`: the melting point fell in the range of 174 to 176 °C.

Consider `NS(=O)(=O)CC1CC1`, for which the melting point was in the range of 45 to 47 °C.

For the compound `CS(=O)(=O)NCCC1CCCCN1` (centres undefined), the melting point was 105 to 107 °C.

Take `CNC(=O)c1cccc(C(=O)O)c1`: the melting point lay within 232 to 234 °C.

In turn, `c1ccc(CCNc2nccs2)cc1` gave a melting point of 68 to 70 °C.

Turning to `Cc1cc(C)cc(-n2nnnc2S)c1`, the melting point lay within 164 to 166 °C.

The compound `Cc1cc(Cl)c(O)cc1OCC(=O)O` registered a melting point of 131 to 133 °C.

The compound `CCOC(=O)c1cc(Br)cc(F)c1N` showed a melting point of 48 to 50 °C.

As to `COC(=O)C=Cn1c(=O)ccn2ncnc12`, the melting point lay in the range of 239 to 241 °C.

For the compound `Cc1ccc(C2CS(=O)(=O)CCN2)o1` (centres undefined), the melting point was 111 to 113 °C.

In turn, `CC(=O)c1ccc(C)c([N+](=O)[O-])c1` gave a melting point of 59 to 62 °C.

`Nc1nncc(-c2cccc(Cl)c2)n1` yielded a melting point of 219 to 221 °C.

For the compound `O=C(O)c1cnc(COc2ccccc2)s1`, the melting point was in the range of 174 to 176 °C.

With `O=C(O)CCNC(=O)c1ccsc1`, the melting point was 235 to 237 °C.

Compound `Cc1ccc(-c2noc(CCC(=O)O)n2)cc1` came in with a melting point of 143 to 145 °C.

`O=C(O)CCc1ccc(S(=O)(=O)N2CCOCC2)cc1`: the melting point was in the range of 160 to 162 °C.

The compound `O=[N+]([O-])c1cccc2c1NCCC2` gave a melting point of 69 to 71 °C.

As to `Cc1cc(C(=O)O)nn1-c1cccc(C#N)c1`, the melting point fell in the range of 249 to 251 °C.

Take `CC(C)c1ccc(CCNC(=O)CCl)cc1`: the melting point was 54 to 56 °C.

As for `Clc1nc(CN2CCOCC2)nc2sc3c(c12)CCC3`, the melting point lay within 103 to 107 °C.

The compound `O=C(CCl)Nc1cc2c(cc1[N+](=O)[O-])OCO2` showed a melting point of 142 to 144 °C.
